Assay results taken from US8791075B2, “Methods and compositions for inhibition of BCL6 repression” (Albert Einstein College of Medicine of Yeshiva University, priority 2008, dated 2014).
Square brackets hold non-standard residues; d marks the D form. Ends that are not written are not given here. Peptide text beside a SMILES is read from it.

Tested on: DLBCL cell lines known to be biologically dependent on BCL6 (ly1, Ly7 and Ly10)
Assay: DLBCL cell growth inhibition, BCL6-dependent cell lines
Format: cell-based, human
Settings: for anti-lymphoma activity: BCL6 dependent DLBCL cells, 48 h; for GI50: Ly1, Ly7, Ly10, 48 hr total amount, dose frequency as in Table 1
Method: DLBCL cell lines were grown at its respective concentration that were sufficient to keep the untreated cells in exponential growth over the 48 h peptide exposure time. Cell viability was determined by using a fluorometric resazurin reduction method (CellTiter-Blue, Promega) following the manufacturer instructions. The fluorescence (560Ex/590Em) was determined using the Polarstar Optima microplate reader (BMG Labtechnologies). The number of viable cells in each treated well was calculated by using the linear least-squares regression of the standard curve. Optical density was determined for 6 replicates per treatment condition or standard. Cell viability in peptide-treated cells was normalized to their respective controls. Cell viability was verified by the Sulforhodamine B assay (Sigma, Milwaukee, Wis.) following manufacturer's instructions with minor modifications for suspended cells. Experiments were carried out in triplicates and data are represented as percentage of growth inhibition to respective control with 95% confidence interval.
DLBCL cell growth inhibition was chosen as the most relevant screening assay to compare and contrast the biological activity of BPI and its derivatives. […] Growth inhibition was measured by a metabolic viability assay and verified by trypan blue exclusion and were performed in biological quintuplicates. […]

| Compound | anti-lymphoma activity | GI50 | other results |
| --- | --- | --- | --- |
| CC[C@@H](C)[C@@H](NC(=O)CNC(=O)[C@@H](CCCNC(=N)N)NC(=O)CNC(=O)CNC(=O)[C@@H](CCCNC(=N)N)NC(=O)[C@@H](CCCCN)NC(=O)[C@@H](CCCCN)NC(=O)[C@@H](CCCNC(=N)N)NC(=O)[C@@H](CCCNC(=N)N)NC(=O)[C@@H](CCC(N)=O)NC(=O)[C@@H](CCCNC(=N)N)NC(=O)[C@@H](CCCNC(=N)N)NC(=O)[C@@H](CCCNC(=N)N)NC(=O)CN)C(=O)N[C@H](CCC(=O)O)C(=O)N[C@H](Cc1c[nH]cn1)C(=O)N[C@@H](C(=O)N[C@H](CO)C(=O)N[C@H](CCCNC(=N)N)C(=O)NCC(=O)O)[C@H](C)CC [S7] (H-G[dR][dR][dR][dQ][dR][dR][dK][dK][dR]GG[dR]G[dI][dE][dH][dI][dS][dR]G-OH; N-terminus and C-terminus assumed) | significantly weaker | – | – |
| G[dD][dI][dM]G[dE][dW]G[dN][dE][dI][dF]G[dA][dI][dA]G[dF][dL]GG[dR][dR][dR][dQ][dR][dR][dK][dK][dR]GGRSIHEIPRG [S4] | – | 14.4 µM | – |
| NH2-GLFGAIAGFIENGWEGMIDG-OH (H-GLFGAIAGFIENGWEGMIDG-OH) [Fu, reference compound] | – | – | effect on DLBCL viability (FIG. 8) (Ly1, Ly7 and Ly10, peptides administered every 4 h during a 48 h interval): little or no effect |
| YGRKKRRQRRRGGLVATVKEAGRSIHEIPREEL [S1] | not active | – | – |
| YGRKKRRQRRRGGRSIHEIPRG [S2] | – | 21.7 µM | – |
